From patent EP0521310A2, “Solid dispersion tablets containing 1,4-dihydropyridine derivatives and process for the preparation thereof” (FUJIREBIO Inc., priority 1991, dated 1993)

Assay: thermal analysis (DSC) of solid dispersions, conversion to amorphous form
Format: physicochemical
Experimental: HPC and FRC8653, in the propotion of 1, 2, 3, 4 or 5 parts by weight of HPC based on one part by weight of FRC8653, were added to the mixed solvent of methanol/dichloromethane and dissolved, followed by removal of the solvent and drying. The samples obtained were subjected to thermal analysis (DSC).
Both HP55 (Shin-Etsu Chemical Co.) and FRC8653, in the proportion of 1, 2, 3, 4 or 5 parts by weight of HP55 based on one part by weight of FRC8653, were added to the mixed solvent of methanol/dichloromethane and dissolved, followed by removal of the solvent and drying in order to subject to thermal analysis (DSC). The amount of HP55 necessary to convert the FRC8653 into its amorphous form was 2 parts by weight or more per one part by weight of FRC8653.

With `COCCOC(=O)C1=C(C)NC(C)=C(C(=O)OC/C=C/c2ccccc2)C1c1cccc([N+](=O)[O-])c1` (racemic) [FRC8653, 2-methoxyethyl (E)-3-phenyl-2-propen-1-yl (+/-)-1,4-dihydro-2,6-dimethyl-4-(3-nitrophenyl)-3,5-pyridinedicarboxylate] the “amount of HPC required to convert FRC8653 into its amorphous form” value (Fig. 3) was ≥ 4 parts by weight per one part b and the “amount of HP55 necessary to convert the FRC8653 into its amorphous form” value (Fig. 6) was ≥ 2 parts by weight per one part b.
